Test results reported in patent publication US7880007B2, “Bicyclic substituted phenyl piperidine modulators of muscarinic receptors” (Vertex Pharmaceuticals Incorporated, priority 2004, dated 2011).

Assays:
Format in all cases: cell-based
M1 muscarinic receptor = target: T1, M1 muscarinic receptor (Homo sapiens, UniProt P11229); assay: Functional mobilization of intracellular calcium (FLIPR), M1-CHO cells; details: for Emax: 100% efficacy = maximum response obtained with the Carbachol control; for M1 Activity: M1-CHO cells, calcium mobilization (FLIPR)
T1 construct: expressed in transfected cells; host or cells: CHO (M1-CHO)
T1 sequence (P11229 1-460): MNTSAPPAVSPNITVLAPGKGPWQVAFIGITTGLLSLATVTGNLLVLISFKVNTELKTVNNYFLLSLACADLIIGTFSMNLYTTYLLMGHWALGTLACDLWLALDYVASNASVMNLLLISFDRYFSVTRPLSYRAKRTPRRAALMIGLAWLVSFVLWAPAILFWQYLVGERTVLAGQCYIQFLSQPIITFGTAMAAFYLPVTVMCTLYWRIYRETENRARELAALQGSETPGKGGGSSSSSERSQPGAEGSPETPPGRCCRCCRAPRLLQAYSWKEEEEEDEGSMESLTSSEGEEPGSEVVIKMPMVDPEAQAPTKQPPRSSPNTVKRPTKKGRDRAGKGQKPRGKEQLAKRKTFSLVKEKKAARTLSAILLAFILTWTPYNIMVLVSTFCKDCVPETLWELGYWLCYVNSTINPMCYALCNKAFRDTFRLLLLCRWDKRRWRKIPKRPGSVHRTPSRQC
Method in brief: (§1)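 FLIPR fluorescence (ex 488, em 540 nm) recorded 60 sec after compound addition to dye-loaded CHO cells. Agonist mode: compound alone. Antagonist mode: 15 min compound pre-incubation, then carbachol at EC80, or co-application. Efficacy expressed as % of maximal carbachol response.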

M2 muscarinic receptor = target: T2, M2 muscarinic receptor (Homo sapiens, UniProt P08172); assay: Functional mobilization of intracellular calcium (FLIPR), M2-CHO cells; details: for Emax: 100% efficacy = maximum response obtained with the Carbachol control; for M2 Activity: M2-CHO cells, calcium mobilization (FLIPR)
T2 construct: expressed in transfected cells; host or cells: CHO (M2-CHO)
T2 sequence (P08172 1-466): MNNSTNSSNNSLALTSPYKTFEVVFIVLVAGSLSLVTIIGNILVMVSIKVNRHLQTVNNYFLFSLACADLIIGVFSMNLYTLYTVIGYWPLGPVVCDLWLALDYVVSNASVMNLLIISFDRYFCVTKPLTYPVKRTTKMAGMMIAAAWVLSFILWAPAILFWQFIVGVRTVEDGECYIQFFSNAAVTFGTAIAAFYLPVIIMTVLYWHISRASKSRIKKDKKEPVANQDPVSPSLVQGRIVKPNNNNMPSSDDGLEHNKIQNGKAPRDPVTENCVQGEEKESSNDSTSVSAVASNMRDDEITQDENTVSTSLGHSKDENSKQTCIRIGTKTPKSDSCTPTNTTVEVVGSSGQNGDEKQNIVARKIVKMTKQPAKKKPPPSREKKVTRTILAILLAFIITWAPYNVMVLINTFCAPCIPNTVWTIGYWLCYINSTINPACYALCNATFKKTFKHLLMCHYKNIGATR
Method in brief: as §1

M3 muscarinic receptor = target: T3, M3 muscarinic receptor (Homo sapiens, UniProt P20309); assay: Functional mobilization of intracellular calcium (FLIPR), M3-CHO cells; details: for Emax: 100% efficacy = maximum response obtained with the Carbachol control; for M3 Activity: M3-CHO cells, calcium mobilization (FLIPR)
T3 construct: expressed in transfected cells; host or cells: CHO (M3-CHO)
T3 sequence (P20309 whole entry): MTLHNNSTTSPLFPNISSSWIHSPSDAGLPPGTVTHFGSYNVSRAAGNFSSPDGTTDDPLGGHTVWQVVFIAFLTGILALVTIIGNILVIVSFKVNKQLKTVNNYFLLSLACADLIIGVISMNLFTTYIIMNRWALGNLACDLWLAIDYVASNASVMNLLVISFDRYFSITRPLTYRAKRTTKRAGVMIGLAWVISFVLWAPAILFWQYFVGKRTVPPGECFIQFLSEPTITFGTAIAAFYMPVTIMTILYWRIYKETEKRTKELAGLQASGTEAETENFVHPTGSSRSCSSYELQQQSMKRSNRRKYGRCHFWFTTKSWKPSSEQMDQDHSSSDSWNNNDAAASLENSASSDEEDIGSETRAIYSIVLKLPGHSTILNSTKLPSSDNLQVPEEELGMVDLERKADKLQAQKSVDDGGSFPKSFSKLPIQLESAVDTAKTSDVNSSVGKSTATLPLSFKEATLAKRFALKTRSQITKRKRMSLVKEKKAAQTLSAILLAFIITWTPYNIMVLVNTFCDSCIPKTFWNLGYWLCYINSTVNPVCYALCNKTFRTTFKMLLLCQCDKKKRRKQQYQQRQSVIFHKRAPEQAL
Description: Functional Mobilization of Intracellular Calcium to Determine Muscarinic Receptor Activity:
CHO cells expressing muscarinic receptors (M1 to M5) are grown as monolayers in tissue culture flasks at 37° C. in a humidified atmosphere containing 5% CO2 and passaged every 3-5 days. The growth media is Dulbecco's modified eagles medium (DMEM, Gibco Cat #12430-054), containing 25 mM Hepes and supplemented with Fetal Bovine Serum (Hyclone, cat #SH30071.03), 0.1 mM of MEM non-essential amino acids (GIBCO, Cat #11140-050), 1 mM MEM Sodium Pyruvate (GIBCO Cat #11360-070) and 100 units/ml of Penicillin G and 100 μg/ml of Streptomycin (GIBCO Cat #15140-122). The recombinant muscarinic receptor cell lines are grown under antibiotic pressure with media containing 25 μg/ml zeocin and 500 μg/ml G418 (M1-CHO), 4 μg/ml puromycin, 50 μg/ml zeocin and 2.5 μg/ml blasticidin (M2 and M4-CHO) or 50 μg/ml zeocin and 4 μg/ml puromycin (M3 and M5-CHO).
Cells are harvested at 80-90% confluence using Versene (GIBCO Cat #15040-066), collected by centrifugation and seeded 18-24 hrs prior to running the calcium assay at a density of 5,000-10,000 cells/well in […], clear-bottomed 384-well plates (BD Biocoat, poly-D-lysine, Cat #356663). The day of the experiment, the cells are washed with a plate washer (Bioteck Instruments, ELX 405) using bath 1 buffer (140-mM NaCl, 4.5-mM KCl, 2-mM CaCl2, 1-mM MgCl2, 10-mM Hepes-Na, 10-mM Glucose, pH 7.4, with NaOH) containing 1 mM Probenecid. Next, the calcium dye Fluo-3 (25 μl/well of Fluo-3 AM at 4 μM, Molecular Probes F-1241, in Bath 1 buffer containing 1 mM Probenecid) is added to the 25 μl of Bath 1 remaining in each well after the plate wash and the dye is loaded at 37° C. in the tissue culture incubator for 60-90 min. The fluorescent dye is removed using the plate washer with Bath 1 containing 1 mM Probenecid, leaving 25 μl/well of this solution after the wash. Alternatively, cells can be loaded with the calcium indicator from Molecular Devices (Calcium 3 Assay Reagents, Cat #R7181) adding 5 μl of a 5× solution dye in Bath 1 containing 1 mM Probenecid (10 ml per dye flask cat #R7182 to generate a solution 20×) to 20 μl of the same buffer. After loading for 60 min, the experiment can be run without having to remove the dye.
Compounds are prepared at a 2× fold concentration in a 96-well plate (round bottom, Costar Corning cat #3656), by reconstituting the pre-spotted compounds in bath 1 containing 1 mM probenecid. The final concentration DMSO is 0.5%, and the amount of DMSO is normalized across the assay plate. To determine an agonist action of the compounds on muscarinic receptors, the reconstituted compounds are added (25 μl compound/well) to the cell assay plate (containing 25 μl/well) using the multi-channel robotic system of the FLIPR 3 Instrument (Molecular Devices, Sunnyvale, Calif.). To determine a functional inhibitory action of the compounds on muscarinic receptors, the reconstituted compounds are added (25 μl compound/well) to the assay plate and pre-incubated for 15 min prior to adding 25 μl of Carbachol at 3× the EC80 for each muscarinic subtype. Alternatively, the compounds can be co-applied simultaneously with the agonist. In both assay modes, the fluorescence is recorded for 60 sec (excitation wavelength is […] and emission wavelength 540 nm) using the FLIPR 3 instrument.
The potency, efficacy and selectivity of the muscarinic compounds were evaluated by screening the compound activity across the whole family (M1 to M5 cells). Compounds were also screened for activity on other proteins such as other GPCRs and ion channels to determine selectivity on M4 receptors.
Examples of activities and efficacies of the muscarinic compounds of formulae (I, Ia, Ib, and II) on modulating M1, M2, M3 and M4 receptors are shown below in Table 3. […]

M4 muscarinic receptor = target: T4, M4 muscarinic receptor (Homo sapiens, UniProt P08173); assay: Functional mobilization of intracellular calcium (FLIPR), M4-CHO cells; details: for Emax: 100% efficacy = maximum response obtained with the Carbachol control; for M4 Activity: M4-CHO cells, calcium mobilization (FLIPR)
T4 construct: expressed in transfected cells; host or cells: CHO (M4-CHO)
T4 sequence (P08173 1-479): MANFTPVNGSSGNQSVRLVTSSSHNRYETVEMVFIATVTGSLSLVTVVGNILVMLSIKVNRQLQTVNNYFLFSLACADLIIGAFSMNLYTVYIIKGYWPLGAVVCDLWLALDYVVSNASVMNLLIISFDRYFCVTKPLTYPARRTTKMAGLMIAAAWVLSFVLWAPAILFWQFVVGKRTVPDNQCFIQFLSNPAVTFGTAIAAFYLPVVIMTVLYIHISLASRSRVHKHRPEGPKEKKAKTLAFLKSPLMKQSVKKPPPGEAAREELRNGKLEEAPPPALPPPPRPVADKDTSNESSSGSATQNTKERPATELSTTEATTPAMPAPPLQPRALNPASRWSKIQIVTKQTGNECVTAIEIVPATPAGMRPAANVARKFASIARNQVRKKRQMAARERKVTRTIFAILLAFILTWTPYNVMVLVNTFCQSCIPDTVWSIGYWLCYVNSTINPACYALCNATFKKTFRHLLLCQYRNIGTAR
Method in brief: as §1

| Emax (M1 muscarinic receptor) | Emax (M2 muscarinic receptor) | Emax (M3 muscarinic receptor) | Emax (M4 muscarinic receptor) | Structure (SMILES) | M1 Activity (M1 muscarinic receptor) | M2 Activity (M2 muscarinic receptor) | M3 Activity (M3 muscarinic receptor) | M4 Activity (M4 muscarinic receptor) |
| --- | --- | --- | --- | --- | --- | --- | --- | --- |
| < 25% | < 25% | < 25% | 25 to 100% | COc1ccccc1C1CCN(C2CCCC2)CC1 [Compound 15] | + (activity was measured to be greater than 5.0 μM) | + (activity was measured to be greater than 5.0 μM) | + (activity was measured to be greater than 5.0 μM) | +++ (activity was measured to be less than 1.0 μM) |
| < 25% | < 25% | < 25% | 25 to 100% | O=C(COc1ccccc1C1CCN([C@H]2C[C@H]3CC[C@H]2C3)CC1)c1cccc(Cl)c1 [Compound 16] | + (activity was measured to be greater than 5.0 μM) | + (activity was measured to be greater than 5.0 μM) | + (activity was measured to be greater than 5.0 μM) | ++ (activity was measured to be from 1.0 μM to 5.0 μM) |
| < 25% | < 25% | < 25% | 25 to 100% | COc1ccc(-c2ccc(C(=O)N3CCCC3)cc2)cc1C1CCN([C@H]2C[C@H]3CC[C@H]2C3)CC1 [Compound 17] | + (activity was measured to be greater than 5.0 μM) | + (activity was measured to be greater than 5.0 μM) | + (activity was measured to be greater than 5.0 μM) | ++ (activity was measured to be from 1.0 μM to 5.0 μM) |
| 25 to 100% | 25 to 100% | < 25% | 25 to 100% | COc1ccc(F)cc1C1CCN(C[C@H]2C[C@H]3C=C[C@H]2C3)CC1 [Compound 18] | +++ (activity was measured to be less than 1.0 μM) | +++ (activity was measured to be less than 1.0 μM) | + (activity was measured to be greater than 5.0 μM) | +++ (activity was measured to be less than 1.0 μM) |
| < 25% | < 25% | < 25% | < 25% | COc1ccc(-c2ccc([S+](C)[O-])cc2)cc1C1CCN(C2CCOCC2)CC1 (centres unmarked) [Compound 22] | + (activity was measured to be greater than 5.0 μM) | + (activity was measured to be greater than 5.0 μM) | + (activity was measured to be greater than 5.0 μM) | + (activity was measured to be greater than 5.0 μM) |

Continued, molecule first:

| Structure (SMILES) | Emax (M1 muscarinic receptor) | Emax (M2 muscarinic receptor) | Emax (M3 muscarinic receptor) | Emax (M4 muscarinic receptor) | M1 Activity (M1 muscarinic receptor) | M2 Activity (M2 muscarinic receptor) | M3 Activity (M3 muscarinic receptor) | M4 Activity (M4 muscarinic receptor) |
| --- | --- | --- | --- | --- | --- | --- | --- | --- |
| CCC(=O)COc1ccccc1C1CCN([C@H]2C[C@H]3CC[C@H]2C3)CC1 [Compound 19] | 25 to 100% | < 25% | < 25% | 25 to 100% | ++ (activity was measured to be from 1.0 μM to 5.0 μM) | + (activity was measured to be greater than 5.0 μM) | + (activity was measured to be greater than 5.0 μM) | +++ (activity was measured to be less than 1.0 μM) |
| Cc1ccccc1C1CCN([C@H]2C[C@H]3CC[C@H]2C3)CC1 [Compound 24] | 25 to 100% | 25 to 100% | < 25% | 25 to 100% | ++ (activity was measured to be from 1.0 μM to 5.0 μM) | ++ (activity was measured to be from 1.0 μM to 5.0 μM) | + (activity was measured to be greater than 5.0 μM) | +++ (activity was measured to be less than 1.0 μM) |
| COc1ccccc1C1(O)CCN(C2CC3CCC2C3)CC1 (centres unmarked) [Compound 25] | < 25% | < 25% | – | < 25% | + (activity was measured to be greater than 5.0 μM) | + (activity was measured to be greater than 5.0 μM) | + (activity was measured to be greater than 5.0 μM) | + (activity was measured to be greater than 5.0 μM) |
| CC(C)Oc1ccccc1C1CCN([C@H]2C[C@H]3CC[C@H]2C3)CC1 [Compound 26] | 25 to 100% | < 25% | < 25% | 25 to 100% | ++ (activity was measured to be from 1.0 μM to 5.0 μM) | + (activity was measured to be greater than 5.0 μM) | + (activity was measured to be greater than 5.0 μM) | +++ (activity was measured to be less than 1.0 μM) |
